Source: article PMC11714206, “Massively Parallel Screening of Toll/Interleukin‐1 Receptor (TIR)‐Derived Peptides Reveals Multiple Toll‐Like Receptors (TLRs)‐Targeting Immunomodulatory Peptides” (Advanced Science, 2024)

Biological target: T1, MyD88^TIR (Homo sapiens, UniProt Q99836)
T1 construct: MyD88 (residues 148–296); 6xHis; made in house; host or cells: E. coli BL21 (DE3)
Assay: T‐Surf phage library (P8 and P3) selection against MyD88^TIR, four rounds, NGS read counts
Format: binding
Conditions: for P8_MyD88 Rank (after) / P8_MyD88 Rank (before): P8 library; for Population: P8_MyD88 pool: P8 T-Surf phage library, 4th round of selection against MyD88 TIR, share of NGS reads; for P3_MyD88 Rank (after) / P3_MyD88 Rank (before): P3 library
In short: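 P8 and P3 T‐Surf libraries panned against plate-coated TIR domains (5 µg mL^−1), 1 h binding at RT, acid elution and TG1/helper-phage amplification per round. After four rounds, pools were PCR-barcoded and sequenced (NovaSeq, 100 bp paired-end, Phred ≥30); peptides ranked by read counts.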

[1] = selection against MyD88, rank after grouping
[2] = selection against MyD88, rank before grouping
[3] = P8_MyD88: rank by count after grouping
[4] = P8_MyD88: rank by count before grouping
[5] = selection against MyD88 TIR, rank by count after grouping
[6] = selection against MyD88 TIR, rank by count before grouping
[7] = 4R selection against MyD88, rank after grouping
[8] = 4R selection against MyD88, rank before grouping
[9] = selection against MyD88, rank by count after grouping
[10] = selection against MyD88, rank by count before grouping
[11] = P8_MyD88: rank by NGS read count after grouping
[12] = P8_MyD88: rank by NGS read count before grouping

T1 sequence (Q99836 148-296): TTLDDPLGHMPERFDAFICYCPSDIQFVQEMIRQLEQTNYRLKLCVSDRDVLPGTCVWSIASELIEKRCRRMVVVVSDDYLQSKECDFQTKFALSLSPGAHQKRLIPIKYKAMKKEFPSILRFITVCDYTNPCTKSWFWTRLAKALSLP

NYAASEWALRELIQIM
P8_MyD88 Rank (after) [1]: 528 | P8_MyD88 Rank (before) [2]: 3837

NYADSSWALDELLAIM
Rank (after) [3]: 164 | Rank (before) [4]: 184 | Population: 0.00732%

NYASSPWALDELVKIF
P8_MyD88 Rank (after) [5]: 197 | P8_MyD88 Rank (before) [6]: 295

NYASSSWALDELLRILY
Rank (after) [3]: 155 | Rank (before) [4]: 238

NYASSSWALNELLEILK
P8_MyD88 Rank (after) [1]: 506 | P8_MyD88 Rank (before) [2]: 3849

NYASSTFALNELHYILRFI
P8_MyD88 Rank (after) [1]: 496 | P8_MyD88 Rank (before) [2]: 3852

NYATSRWALDELVRIF
P8_MyD88 Rank (after) [5]: 227 | P8_MyD88 Rank (before) [6]: 419

NYGSNSWALNELLEIL
Population: 0.00848%

NYGSNSWALNKLLEIL
P8_MyD88 Rank (after) [1]: 492 | P8_MyD88 Rank (before) [2]: 3834

NYGSSSWALEELAHIIE
P8_MyD88 Rank (after) [7]: 665 | P8_MyD88 Rank (before) [8]: 3831

NYTSSSWALDEQWNIF
P8_MyD88 Rank (after) [7]: 653 | P8_MyD88 Rank (before) [8]: 3860

PDEVKRTVGLTFSLSL
P8_MyD88 Rank (after) [9]: 739 | P8_MyD88 Rank (before) [10]: 3407

PEKANGGENAFFNNIV
P3_MyD88 Rank (after) [1]: 566 | P3_MyD88 Rank (before) [2]: 2705

PEKDNGGEIAFINNLV
P3_MyD88 Rank (after) [1]: 547 | P3_MyD88 Rank (before) [2]: 2710

PEKDNGGENAFINTL
P3_MyD88 Rank (after) [9]: 731 | P3_MyD88 Rank (before) [10]: 2715

PEKDNGGENALSITL
P3_MyD88 Rank (after) [5]: 218 | P3_MyD88 Rank (before) [6]: 1121

PEKIMAAKMRLSITL
P3_MyD88 Rank (after) [5]: 274 | P3_MyD88 Rank (before) [6]: 2702

PENDNGGENAFINHIV
P3_MyD88 Rank (after) [7]: 635 | P3_MyD88 Rank (before) [8]: 2700

PGYHWLEWEYFVGIED
Rank (after) [3]: 442 | Rank (before) [4]: 1195

PHDLDWLYERPVRLIL
Rank (after) [11]: 980 | Rank (before) [12]: 3412

PKVGSWRQALEKAGKL
P3_MyD88 Rank (after) [1]: 560 | P3_MyD88 Rank (before) [2]: 2763

PNLRTKVLNYLMRTKT
P8_MyD88 Rank (after) [9]: 705 | P8_MyD88 Rank (before) [10]: 3508

PQAPEWSYERLVSLIL
Rank (after) [11]: 954 | Rank (before) [12]: 3417

PQDLAWLYERPLSLIL
Rank (after) [11]: 1015 | Rank (before) [12]: 3424

PQDLAWYYVRLVSLIL
P8_MyD88 Rank (after) [7]: 583 | P8_MyD88 Rank (before) [8]: 3423

PQDLDWFYDRLVSLIL
P8_MyD88 Rank (after) [7]: 589 | P8_MyD88 Rank (before) [8]: 3431

PQDLDWFYERLESLF
Rank (after) [11]: 1019 | Rank (before) [12]: 3427

PQDLDWFYERLVSLL
Rank (after) [3]: 101 | Rank (before) [4]: 120 | Population: 0.0189%

PQDLDWFYERLVSQM
P8_MyD88 Rank (after) [9]: 716 | P8_MyD88 Rank (before) [10]: 3426

PQDLEWFYERGEPDS
P8_MyD88 Rank (after) [9]: 751 | P8_MyD88 Rank (before) [10]: 3445

PQDLEWFYERLFSQM
Rank (after) [3]: 96 | Rank (before) [4]: 102 | Population: 0.0227%

PQDLEWFYERLVTHVLLRHL
P8_MyD88 Rank (after) [1]: 566 | P8_MyD88 Rank (before) [2]: 3461

PQDLEWFYERMVGLIL
Rank (after) [11]: 879 | Rank (before) [12]: 3429

PQDLEWLYERLVRLIL
P8_MyD88 Rank (after) [5]: 287 | P8_MyD88 Rank (before) [6]: 3472

PQDLGWFYERLISQILK
Rank (after) [3]: 386 | Rank (before) [4]: 1201

PQDLGWYYERLVSLIL
Rank (after) [11]: 888 | Rank (before) [12]: 3421

PQDLQWFYERLVSLI
Rank (after) [3]: 150 | Rank (before) [4]: 186 | Population: 0.00694%

PQDLVWFFEGLVSLIL
Rank (after) [11]: 952 | Rank (before) [12]: 3420

PQDQEWFYERIVSLP
P8_MyD88 Rank (after) [9]: 726 | P8_MyD88 Rank (before) [10]: 3492

PQDQEWFYERMVSLIL
P8_MyD88 Rank (after) [1]: 517 | P8_MyD88 Rank (before) [2]: 3491

PQDRERFFERLFSLF
Rank (after) [11]: 998 | Rank (before) [12]: 3490
